Among the data in patent US9284325B2, “Spectinamides as anti-tuberculosis agents” (UNIVERSITY OF TENNESSEE RESEARCH FOUNDATION, priority 2009, dated 2016) are MIC values, retold here.

In one experiment the test system is M. tuberculosis H37Rv. Nature of the experiment: MIC determination by microbroth dilution, anti-tuberculosis activity. The format is cell-based, Mycobacterium tuberculosis. To be noted: Mycobacterium tuberculosis, H37RV, 168 h; read-out: MIC. On the technique in general: Dilution methods test growth across graded concentrations, often in twofold steps.
Experiment [1] relates to S. aureus 8325 or strain ATCC 29213. Put plainly: MIC determination by microbroth dilution. The format is cell-based, Staphylococcus aureus. The note with it: Staphylococcus aureus, ATCC29213; S. aureus 8325 or strain ATCC 29213 (for 1471-1544).
Experiment [2] relates to Strep. pyogenes ATCC 700294. Nature of the experiment: MIC determination by microbroth dilution. Format: cell-based, Streptococcus pyogenes. To be noted: Streptococcus pyogenes, ATCC700294, read-out: MIC S. pyogenes.
Experiment [3] deals with Strep. pneumoniae DAW27 or strain R6. Nature of the experiment: MIC determination by microbroth dilution. To be noted: Streptococcus pneumoniae; Strep. pneumoniae DAW27 or strain R6 (for 1443-1544); read-out: MIC S. pneumoniae. Format: cell-based, Streptococcus pneumoniae.
Another experiment relates to E. faecalis ATCC 33186. Put plainly: MIC determination by microbroth dilution. The format is cell-based, Enterococcus faecalis. To be noted: Enterococcus faecalis, ATCC33186.
The test system of the next experiment is B. anthracis Sterne 34F2. Put plainly: microbe, parasite or virus in culture. To be noted: Bacillus anthracis, STERNE34F2, read-out: MIC B. anthracis 34F2. The format is cell-based, Bacillus anthracis.
Experiment [4] concerns Burkholderia cepacia ATCC 25416. Put plainly: MIC determination by microbroth dilution. Format: cell-based. The note with it: ATCC25416, read-out: MIC B. cepcia.
Experiment [5] deals with Proteus mirabilis ATCC 25933. Nature of the experiment: MIC determination by microbroth dilution. The note with it: ATCC25933. Format: cell-based.
Experiment [6] concerns Proteus vulgaris ATCC 33420. Put plainly: MIC determination by microbroth dilution. The format is cell-based. To be noted: ATCC33420.
The subject of experiment [7] is Klebsiella pneumoniae ATCC 33495. Nature of the experiment: MIC determination by microbroth dilution. Format: cell-based. To be noted: ATCC33495.
For experiment [8], the system named is Acinetobacter baumannii ATCC 19606. Put plainly: MIC determination by microbroth dilution. To be noted: ATCC19606. The format is cell-based.
The test system of a further experiment is P. aeruginosa PAO1. Nature of the experiment: MIC determination by microbroth dilution. The format is cell-based, Pseudomonas aeruginosa. To be noted: Pseudomonas aeruginosa.
Experiment [9] relates to Strenotrophomonas maltophilia ATCC 13637. Put plainly: MIC determination by microbroth dilution. Format: cell-based.
Another experiment deals with E. coli K12. Nature of the experiment: MIC determination by microbroth dilution. The format is cell-based, Escherichia coli. The note with it: Escherichia coli, K12.
In another experiment the test system is E. coli K12 ΔtolC. Nature of the experiment: microbe, parasite or virus in culture. Format: cell-based. To be noted: Escherichia coli, read-out: MIC E. coli K12 ΔtolC.

Values after ≈ are worked out from the molar mass of the structure shown. Counter-ions that a name gives are not always drawn.

As for `CN[C@@H]1[C@H](O)[C@H](NC)C2O[C@]3(O)C(OC2[C@H]1O)O[C@H](C)C[C@H]3NC(=O)C[C@@H](N)c1ccc(F)cc1` (stereo partly drawn) [Compound 1487, 3′-Dihydro-3′-deoxy-4(R)-[3(R)-amino,3-(4-fluorophenyl)]propanoylamino spectinomycin Trihydrochloride], the MIC in the experiment with M. tuberculosis H37Rv is 200 µg/mL; in [1] it was over 200 µg/mL; in experiment [2], 50 µg/mL; in experiment [3] it was 12.5 µg/mL; in the experiment with E. faecalis ATCC 33186, over 200 µg/mL; in the experiment on B. anthracis Sterne 34F2, over 200 µg/mL. In addition, the MIC (in experiment [4]; in experiment [5]; in experiment [6]; in experiment [7]; in [8]; with P. aeruginosa PAO1) was over 200 µg/mL each time. Besides, the MIC is over 200 µg/mL in experiment [9], 200 µg/mL against E. coli K12 and 200 µg/mL in the experiment with E. coli K12 ΔtolC.

For the compound `CN[C@@H]1[C@H](O)[C@H](NC)C2O[C@]3(O)C(OC2[C@H]1O)O[C@H](C)C[C@H]3NC(=O)Cc1nccs1` (stereo partly drawn) [Compound 1489, 3′-Dihydro-3′-deoxy-4(R)-(thiazol-2-yl)acetylamino spectinomycin tetradrobromide], the MIC with M. tuberculosis H37Rv was 6.25 µg/mL (≈ 13.6 µM); in [1], 100 µg/mL (≈ 218 µM); in [2], 12.5 µg/mL (≈ 27.3 µM); in [3], 12.5 µg/mL (≈ 27.3 µM); with E. faecalis ATCC 33186 it was 100 µg/mL (≈ 218 µM); in the experiment with B. anthracis Sterne 34F2, over 200 µg/mL. Further, the MIC (in [4]; in [5]; in experiment [6]; in experiment [7]; in experiment [8]; against P. aeruginosa PAO1) was over 200 µg/mL in each case. For the same compound, the MIC in experiment [9] is over 200 µg/mL; against E. coli K12, 200 µg/mL (≈ 436 µM); in the experiment with E. coli K12 ΔtolC it was 50 µg/mL (≈ 109 µM).

Consider `CN[C@@H]1[C@H](O)[C@H](NC)C2O[C@]3(O)C(OC2[C@H]1O)O[C@H](C)C[C@H]3NC(=O)Cc1ccc([N+](=O)[O-])cn1` (stereo partly drawn) [Compound 1490, 3′-Dihydro-3′-deoxy-4(R)-(5-nitropyridin-2-yl)acetylamino spectinomycin trihydrobromide], for which the MIC was 6.25 µg/mL in the experiment with M. tuberculosis H37Rv; 100 µg/mL in experiment [1]; 12.5 µg/mL in [2]; 12.5 µg/mL in [3]; 50 µg/mL against E. faecalis ATCC 33186; over 200 µg/mL in the experiment on B. anthracis Sterne 34F2. Further, the MIC (in experiment [4]; in experiment [5]; in experiment [6]; in [7]; in experiment [8]; in the experiment with P. aeruginosa PAO1) was over 200 µg/mL throughout. The MIC was over 200 µg/mL in experiment [9], 200 µg/mL in the experiment on E. coli K12 and 12.5 µg/mL in the experiment with E. coli K12 ΔtolC.

As for `CN[C@@H]1[C@H](O)[C@H](NC)C2O[C@]3(O)C(OC2[C@@H]1O)O[C@H](C)C[C@H]3NC(=O)Cc1nc2ccccc2s1` (stereo partly drawn) [Compound 1491, 3′-Dihydro-3′-deoxy-4(R)-(benzothiazol-2-yl)acetylamino spectinomycin trihydrobromide], the MIC in the experiment on M. tuberculosis H37Rv is 1.6 µg/mL; in experiment [1], 100 µg/mL; in [2], 12.5 µg/mL; in experiment [3] it was 6.25 µg/mL; against E. faecalis ATCC 33186, 25 µg/mL; in the experiment on B. anthracis Sterne 34F2, over 200 µg/mL. Also, the MIC (in experiment [4]; in experiment [5]; in [6]; in experiment [7]; in [8]; against P. aeruginosa PAO1) was over 200 µg/mL each time. Moreover, the MIC in experiment [9] is over 200 µg/mL; in the experiment on E. coli K12 it was 200 µg/mL; with E. coli K12 ΔtolC it was 12.5 µg/mL.
